Experimental data reported in US4988708A, “Analgesic and anti-inflammatory 4-OH quinoline carboxylic acid derivatives” (Roussel Uclaf, priority 1984, dated 1991).

The compounds below were run on chronic arthritis of adjuvant (assay: Anti-inflammatory activity, chronic arthritis of adjuvant (preventative treatment)). Conditions: Rattus norvegicus, 408 h; male rats, oral, day 0 to day before kill on day 17; dose reducing increase in volume of hind paws by 50% (table, section A); read-out: DA50 (the source's name).
Type: in vivo
Description: A. Anti-inflammatory activity chronic arthritis of adjuvant (preventative treatment)
(§1) The injection of adjuvant of "Freund" type into a hind paw causes in rats the rapid appearance of a primary inflammatory lesion in this paw and then after a latent period of 13 to 15 days, causes a secondary arthritis affecting in particular the other hind paw. The test was carried out on male rats aged from 42 to 50 days which received by intraplantar injection 0.1 ml of adjuvant of "Freund"type (suspension in vaseline oil of 6 mg per ml. of killed mycobacterium butyricum). The animals received the product studied orally from day 0 (day of the injection of the adjuvant) until the day before they were killed which occured on day 17. The arthritic control animals and normal control animals received only the vehicle. The assessment criteria of the activity of the substances studied were the increase in the volume of hind paws injected (primary and secondary inflammation) and not injected (secondary inflammation) in comparison with the average volume of paws corresponding to the normal controls. The DA50 was determined, that is to say, the dose which reduced the increase in volume of the hind paws of the treated animals in comparison to those of the control animals by 50% and the results are reported in the following Table.
C. Anti-inflammatory activity chronic arthritis of adjuvant (preventative treatment)
as §1, with “"Freund" type” for “"Freund"type”, “say” for “say,”, “50%.” for “50% and the results are reported in the following Table.”

| SMILES | ED50 [mg/kg] |
| --- | --- |
| O=C(Nc1nccs1)c1c(C(O)CO)nc2c(C(F)(F)F)cccc2c1O (stereo not shown) [Example 2, 2-(1,2-dihydroxyethyl)-4-hydroxy-N-(2-thiazolyl)-8-trifluoromethyl-3-quinoline carboxamide] | 0.7 |
| CCC(=O)OCC(OC(=O)CC)c1nc2c(C(F)(F)F)cccc2c(O)c1C(=O)Nc1nccs1 (stereo not shown) [Example 4, 2-[1,2-bis-(1-oxopropoxy)ethyl]-4-hydroxy-N-(2-thiazolyl)-8-trifluoromethyl-3-quinolinecarboxamide] | 1 |
| CCC(=O)OC(CC)c1nc2c(C(F)(F)F)cccc2c(O)c1C(=O)Nc1nccs1 (stereo not shown) [Example 12, 4-hydroxy-2-[1-(1-oxopropoxy)-propyl]-N-(2-thiazolyl)-8-(trifluoromethyl)-3-quinoline carboxamide] | 0.8 |
| CC(O)C(O)c1nc2c(C(F)(F)F)cccc2c(O)c1C(=O)Nc1nccs1 (stereo not shown) [Example 3, 2-(1,2-dihydroxypropyl)-4-hydroxy-N-(2-thiazolyl)-8-trifluoromethyl-3-quinoline carboxamide] | 3 |
| CCC(OC(=O)c1cc2ccccc2[nH]1)c1nc2c(C(F)(F)F)cccc2c(O)c1C(=O)Nc1nccs1 (stereo not shown) [Example 28, 1-[4-hydroxy-3-{[(2-aminothiazolyl)-carbonyl]-8-trifluoromethyl2-quinolinyl]-propyl]1H-indole-2-carboxylate] | 2 |
| COCC(O)c1nc2c(C(F)(F)F)cccc2c(O)c1C(=O)Nc1nccs1 (stereo not shown) [Example 1, 4-hydroxy-2-(1-hydroxy-2-methoxy-ethyl)-N-(2-thiazolyl)-8-(trifluoromethyl)-3-quinoline carboxamide] | 2 |
| CCC(OC(=O)CN)c1nc2c(C(F)(F)F)cccc2c(O)c1C(=O)Nc1nccs1 (stereo not shown) [Example 16, 1-[4-hydroxy-3-[(2-thiazolylamino)-carbonyl]-8-(trifluoromethyl)-2quinolinyl]-propyl amino acetate dichlorohydride] | 1 |
| CCC(=O)OC(COC)c1nc2c(C(F)(F)F)cccc2c(O)c1C(=O)Nc1nccs1 (stereo not shown) [Example 5, 2-[2-methoxy-1-(1-oxopropoxy)-ethyl]-4-hydroxy-N-(2-thiazolyl)-8-trifluoromethyl-3-quinoline carboxamide] | 5 |
| CCCC(=O)OC(CC)c1nc2c(C(F)(F)F)cccc2c(O)c1C(=O)Nc1nccs1 (stereo not shown) [Example 17, 1-[4-hydroxy-3-[(2-thiazolylamino)-carbonyl]-8-trifluoromethyl)-2quinolinyl]-propyl butanoate] | 1.3 |

Same assay, conditions: Rattus norvegicus, 408 h; male rats, oral, day 0 to day before kill on day 17; dose reducing increase in volume of hind paws by 50% (text, section C); read-out: DA50 (the source's name)

| SMILES | ED50 [mg/kg] |
| --- | --- |
| CCC(O)c1nc2c(C(F)(F)F)cccc2c(O)c1C(=O)Nc1nccs1 (single isomer, unassigned; isomer b) [Step A of Example 27 (B-isomer), 4-hydroxy-2-(1-hydroxypropyl)-N-(2-thiazolyl)-8-trifluoromethyl-3-quinoline carboxamide isomer B] | 0.5 |

Same assay, conditions: male rats, oral, day 0 to day before kill on day 17; dose reducing increase in volume of hind paws by 50% (table, section A); 24480 min

| SMILES | DA50 [mg/kg] |
| --- | --- |
| CCCc1ncc(C(=O)OC(CC)c2nc3c(C(F)(F)F)cccc3c(O)c2C(=O)Nc2nccs2)s1 (stereo not shown) [Example 29] | 2 |

The compounds below were run on stomachs (assay: Gastric ulceration effect). Conditions: female rats, oral, seven hours; graphically determined; maximum ulceration index is 300.
Type: in vivo
Description: B. Gastric ulceration effect
The test was done on female rats weighing 120 to 150 g on a water diet for 24 hours at the time of the treatment divided into random groupd. The products were administered orally and seven hours later, the animals were killed and their stomachs opened along the great curvature, washed in an isotonic solution of sodium chloride and spread apart by wiping with a cotton pad soaked in the same solution. The degree of ulcerous lesions, in number and in size, was estimated on a scale from 0 to 3 by two observers unware of the treatments. The notation 1 indicated the presence of an obvious ulcer or of several punctiform ulcers.
To take in account also the percentage of rats having ulcers (degree of ulceration greater than 0.5, notation attributed to a hyperemia or to Petechiae often encountered in a control which had fasted) an ulceration index was calculated for each group according to the formula [formula]
The dose corresponding to an ulceration index of 100 or DU 100 was graphically determined (the maximum ulceration index is 300).

| SMILES | DU 100 (dose corresponding to an ulceration index of 100) |
| --- | --- |
| CCC(=O)OC(CC)c1nc2c(C(F)(F)F)cccc2c(O)c1C(=O)Nc1nccs1 (stereo not shown) [Example 12, 4-hydroxy-2-[1-(1-oxopropoxy)-propyl]-N-(2-thiazolyl)-8-(trifluoromethyl)-3-quinoline carboxamide] | greater than 300 mg/kg |
| CCCC(=O)OC(CC)c1nc2c(C(F)(F)F)cccc2c(O)c1C(=O)Nc1nccs1 (stereo not shown) [Example 17, 1-[4-hydroxy-3-[(2-thiazolylamino)-carbonyl]-8-trifluoromethyl)-2quinolinyl]-propyl butanoate] | greater than 300 mg/kg |
